In US8541670B2, “Compositions and methods for inhibiting tumor cell growth” (priority 2007, dated 2013):
Where no end group is shown, it is not given here. red fluorescent dye = not defined here

Legend:
PAK3 = PAK3 (Homo sapiens, UniProt O75914); assay: In vitro kinase assay PAK3; format: biochemical; details: ten times higher concentration than 0.1 μM
Experimental: As a specific substrate, the phosphorylation level of GSK-3[…] at Ser-9 was also evaluated. […] The decrease was specific to the AKT phosphorylation site on GSK-3[…] at Ser-9, since a change in the phosphorylation level of GSK-3[…] at Tyr-216 or GSK-3[…] at Tyr-279 was not observed. Moreover, the in vivo reduction of the phosphorylation of AKT substrates was more obvious at the injection site, since a significant change in the phosphorylation of AKT substrates in the frontal cortex or cerebellum between the two hemispheres was not observed. […] To test the specificity/selectivity of ZaTa as the inhibitor of AKT1 versus the other major kinases, a series of in vitro kinase assays was performed at IC50 for AKT1 and at ten times higher concentrations. A panel of the following 32 kinases was first tested in vitro using the active form of each kinase and a specific substrate: AKT2, AKT3, PKA, PKC[…], PKC, PI3K[…], PI3K[…], PI3K, SGK, PAK2, PAK3, SAPK2/p38, Abl, CaMKII, CDK1/cyclinB, CDK5/p35, CK1, CK2, CSK, GSK3[…], GSK3[…], JNK1[…]1, MAPK1, p70S6K, PDGFR[…], PDGFR[…], PDK1, PKG1[…], TrkB, JAK2, JAK3, and Syk. […] However, at ten times higher concentration, ZaTa inhibited AKT2 (63%), PI3K[…] (72%), p70S6K (64%), SGK (73%), PAK3 (83%), JAK3 (79%), TrkB (84%), and Abl (42%). […]

p70S6K = target: T1, p70S6K (Homo sapiens, UniProt P23443); assay: Cell-based kinase assay, phosphorylation of intracellular substrate (Ser-235/236 S6)
T1 construct: endogenous in cells
Experimental: As a specific substrate, the phosphorylation level of GSK-3[…] at Ser-9 was also evaluated. […] The decrease was specific to the AKT phosphorylation site on GSK-3[…] at Ser-9, since a change in the phosphorylation level of GSK-3[…] at Tyr-216 or GSK-3[…] at Tyr-279 was not observed. Moreover, the in vivo reduction of the phosphorylation of AKT substrates was more obvious at the injection site, since a significant change in the phosphorylation of AKT substrates in the frontal cortex or cerebellum between the two hemispheres was not observed. […] To test the specificity/selectivity of ZaTa as the inhibitor of AKT1 versus the other major kinases, a series of in vitro kinase assays was performed at IC50 for AKT1 and at ten times higher concentrations. […]
Phosphorylation sites for kinases analyzed herein included Ser-235/236 S6 (a substrate for p70S6K), Tyr-207 CRKL (a substrate for Abl; Zipfel, et al. (2004) supra), Ser-241 PDK1 (a substrate for PI3K), Tyr-1022/1023 JAK1 (a substrate for JAK3; Wang, et al. (2003) supra), Ser-421 Huntingtin (a substrate for SGK; Rangone, et al. (2004) supra), Tyr-783 PLC (a substrate for TrkB; Middlemas, et al. (1994) supra), and Ser-338 cRaf (a substrate for PAK3; King, et al. (1998) supra).

AKT = assay: In vivo AKT inhibition in brain after stereotactic injection (immunofluorescence, western blot); parameters: species or system mouse
Experimental: As a specific substrate, the phosphorylation level of GSK-3[…] at Ser-9 was also evaluated. […] The decrease was specific to the AKT phosphorylation site on GSK-3[…] at Ser-9, since a change in the phosphorylation level of GSK-3[…] at Tyr-216 or GSK-3[…] at Tyr-279 was not observed. Moreover, the in vivo reduction of the phosphorylation of AKT substrates was more obvious at the injection site, since a significant change in the phosphorylation of AKT substrates in the frontal cortex or cerebellum between the two hemispheres was not observed. […] To test the specificity/selectivity of ZaTa as the inhibitor of AKT1 versus the other major kinases, a series of in vitro kinase assays was performed at IC50 for AKT1 and at ten times higher concentrations. A panel of the following 32 kinases was first tested in vitro using the active form of each kinase and a specific substrate: AKT2, AKT3, PKA, PKC[…], PKC, PI3K[…], PI3K[…], PI3K, SGK, PAK2, PAK3, SAPK2/p38, Abl, CaMKII, CDK1/cyclinB, CDK5/p35, CK1, CK2, CSK, GSK3[…], GSK3[…], JNK1[…]1, MAPK1, p70S6K, PDGFR[…], PDGFR[…], PDK1, PKG1[…], TrkB, JAK2, JAK3, and Syk. […] However, at ten times higher concentration, ZaTa inhibited AKT2 (63%), PI3K[…] (72%), p70S6K (64%), SGK (73%), PAK3 (83%), JAK3 (79%), TrkB (84%), and Abl (42%). To confirm the in vitro inhibitory effect on these kinases in cells, a cell-based assay was used to determine the effect of labeled ZaTa on the phosphorylation levels of well-known intracellular substrates for each kinase (Zipfel, et al. (2004) Curr. Biol. 14:1222-1231; Wang, et al. (2003) Arch. Biochem. Biophys. 410:7-15; King, et al. (1998) Nature 396:180-183; Rangone, et al. (2004) Eur. J. Neurosci. 19:273-279; Middlemas, et al. (1994) J. Biol. Chem. 269:5458-5466; Huang, et al. (1999) J. Biol. Chem. 274:7870-7878). […] Given that most of the above-listed kinases have no known inhibitor, it is contemplated that the ZaTa could be used at micromolar concentrations in in vitro studies to inhibit the activity of the select kinases.
These different localization patterns of ZaTa within the cell were usually accompanied with redistribution of AKT to the site of ZaTa.
N2a cells were cultured in Dulbecco's Modified Eagle's Medium (DMEM) and OPTI-MEM® media (50% of each; GIBCO-BRL, Gaithersberg, Md.) supplemented with 5% fetal bovine serum (FBS; SIGMA, St. Louis, Mo.), penicillin-streptomycin and L-Glutamine (GIBCO-BRL). Cells (˜1×10^6) or frontal cortex of mouse brain (0.05-0.1 gram) were homogenized in ice cold lysate buffer (0.25 M Tris, pH 7.5) containing protease inhibitors (Protease Inhibitor Cocktail tablets; Boehringer Mannheim, Mannheim, Germany) and phosphatase inhibitors (Phosphatase Inhibitor Cocktails I & II; SIGMA) and lysed through three cycles of freezing in liquid nitrogen and thawing in a 37° C. water bath. Protein concentration was measured using a commercially available protein assay (BIO-RAD, […].) protein assay and spectrometry at […]. Equal amounts of total protein were loaded on 4-12% gradient Bis-Tris gels, separated using the NUPAGE® system (INVITROGEN, Carlsbad, Calif.) and transferred onto nitrocellulose membrane. The membrane was probed with primary and secondary antibodies and signals were detected by chemiluminescence followed by autoradiography.
For immunofluorescence analysis of mouse brain, anaesthetized mice were perfused with PBS-buffered formalin, fixed overnight, placed in PBS, and stored at 4° C. VIBRATOME® sections, 50-μm thick, were cut in the coronal plane from the fronto-striatum brain region. […] The sections were blocked overnight using 2% normal goat sera in PBS with 0.3% TRITON™ X-100 and then incubated for 48 hours in blocking solution with 1:500 dilution of anti-phospho-AKT substrate antibody. Sections were washed four times for 15 minutes in PBS, incubated with blocking solution containing goat anti-rabbit ALEXA®-568 secondary antibody (MOLECULAR PROBES, Eugene, Oreg.) for 48 hours, and washed four times for 15 minutes in PBS. […]

[1] = mouse, in vivo

T1 sequence (P23443 whole entry): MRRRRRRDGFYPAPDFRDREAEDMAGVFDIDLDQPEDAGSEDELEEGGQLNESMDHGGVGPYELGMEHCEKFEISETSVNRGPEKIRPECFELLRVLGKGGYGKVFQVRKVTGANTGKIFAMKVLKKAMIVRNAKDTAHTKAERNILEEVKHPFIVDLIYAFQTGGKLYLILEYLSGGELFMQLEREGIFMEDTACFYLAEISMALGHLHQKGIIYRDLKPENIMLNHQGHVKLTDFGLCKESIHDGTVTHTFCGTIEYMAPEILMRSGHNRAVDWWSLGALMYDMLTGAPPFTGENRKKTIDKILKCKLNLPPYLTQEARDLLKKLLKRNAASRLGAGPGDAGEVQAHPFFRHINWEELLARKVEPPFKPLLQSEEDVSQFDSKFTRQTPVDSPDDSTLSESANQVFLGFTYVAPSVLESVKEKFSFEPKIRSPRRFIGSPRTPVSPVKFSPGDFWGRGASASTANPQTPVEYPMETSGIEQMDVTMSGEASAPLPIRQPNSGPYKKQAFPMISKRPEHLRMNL
PAK3, sequence (O75914 whole entry, species assumed): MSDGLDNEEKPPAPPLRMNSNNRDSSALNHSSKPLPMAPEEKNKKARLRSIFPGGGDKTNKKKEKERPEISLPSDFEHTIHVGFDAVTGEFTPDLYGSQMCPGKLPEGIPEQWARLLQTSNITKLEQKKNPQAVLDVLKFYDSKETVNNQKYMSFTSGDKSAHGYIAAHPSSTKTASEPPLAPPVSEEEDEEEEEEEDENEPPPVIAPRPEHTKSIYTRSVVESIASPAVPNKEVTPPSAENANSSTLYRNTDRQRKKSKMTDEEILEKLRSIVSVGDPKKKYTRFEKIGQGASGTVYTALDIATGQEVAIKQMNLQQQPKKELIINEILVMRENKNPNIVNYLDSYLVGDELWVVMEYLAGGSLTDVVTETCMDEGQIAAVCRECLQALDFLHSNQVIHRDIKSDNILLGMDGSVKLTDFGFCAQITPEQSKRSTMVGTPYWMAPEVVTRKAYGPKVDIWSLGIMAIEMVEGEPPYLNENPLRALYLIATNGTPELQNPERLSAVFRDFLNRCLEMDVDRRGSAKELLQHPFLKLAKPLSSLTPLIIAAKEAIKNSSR

Row | Substance | inhibition of PAK3 (PAK3) [%] | inhibition of p70S6K in cells (p70S6K) | change in phosphorylation of AKT substrates in frontal cortex or cerebellum (AKT; away from striatal injection site, between hemispheres) | phosphorylation level of AKT substrates in vivo, western blot (AKT; one hour after stereotactic injection) | phosphorylation level of AKT substrates in striatum, immunofluorescence (AKT; stereotactic injection, versus DMSO-injected hemisphere) | change in phosphorylation level of GSK-3[…] at Tyr-216 or Tyr-279 (AKT; striatum) | phosphorylation level of GSK-3[…] at Ser-9 (AKT; striatum, versus DMSO-injected hemisphere) | distribution and absorption throughout brain tissue [1] | phosphorylation level of AKT substrates in ZaTa-positive cells (AKT; stereotactic injection into frontal cortex)
1 | AKRVKGRTWTLCGTPEY [ZaTa] | 83 | could inhibit p70S6K | not observed | significant decrease | decrease in the phosphorylation level of AKT substrates | not observed | specific reduction | efficient distribution and absorption | –
2 | labeled ZaTa: ZaTa peptide labeled with a red fluorescent dye at its N-terminus ({red fluorescent dye}-AKRVKGRTWTLCGTPEY; reading uncertain) | – | – | – | – | – | – | – | – | specific reduction in phosphorylation level of AKT substrates
